In patent US9060511B2, “Compositions of dibromomalanomide and their use as biocides” (Rohm and Haas Company, priority 2010, dated 2015):

Legend:
[1] = test system: consortium of bacteria: mixture of Pseudomonas aeruginosa, Klebsiella pneumoniae, Staphylococcus aureus, and Bacillus subtilis; experiment: Growth inhibition assay (microtiter plate-based synergy assay); assay type: cell-based; conditions: for I90 (concentration required to inhibit at least 90% of bacterial growth when used alone) / I90 (concentration required for at least 90% inhibition of growth): active alone, 37° C., 24 hr; for I90 (concentration required for at least 90% inhibition of growth): Example 2; for % Inhibition of Growth: Example 3
Source text: (§1) The results provided in the Examples are generated using a growth inhibition assay. Details of each assay are provided below.
(§2) Growth Inhibition Assay. The growth inhibition assay used in the Examples measures inhibition of growth (or lack thereof) of a microbial consortium Inhibition of growth can be the result of killing of the cells (so no growth occurs), killing of a significant portion of the populations of cells so that regrowth requires a prolonged time, or inhibition of growth without killing (stasis). Regardless of the mechanism of action, the impact of a biocide (or combination of biocides) can be measured over time on the basis of an increase in the size of the community.
(§3) The assay measures the efficacy of one or more biocides at preventing growth of a consortium of bacteria in a dilute mineral salts medium. The medium contains (in mg/l) the following components: FeCl3.6H2O (1); CaCl2.2H2O (10); MgSO4.7H2O (22.5); (NH4)2SO4 (40); KH2PO4 (10); K2HPO4 (25.5); Yeast Extract (10); and glucose (100). After all components are added to deionized water, the pH of the medium is adjusted to 7.5. Following filter sterilization, aliquots are dispensed in 100 μl quantities to sterile microtiter plate wells. Dilutions of 2,2-dibromomalonamide (“DBMAL”) and/or “Biocide B” are then added to the microtiter plate. After preparing the combinations of actives as illustrated below, each well is inoculated with 100 μl of a cell suspension containing ca. 1×10^6 cells per milliliter of a mixture of Pseudomonas aeruginosa, Klebsiella pneumoniae, Staphylococcus aureus, and Bacillus subtilis. The final total volume of medium in each well is […]. […] The resulting matrix allows testing of eight concentrations of each active and 64 combinations of actives in the ratios (of actives).
(§4) Controls (not shown) contain the medium with no biocide added.
(§5) Immediately after the microtiter plates are prepared, the optical density (OD) readings for each well is measured at 580 nm and the plates are then incubated at 37° C. for 24 hr. After the incubation period, the plates are gently agitated before OD580 values are collected. The OD580 values at T0 are subtracted from T24 values to determine the total amount of growth (or lack thereof) that occurs. These values are used to calculate the percent inhibition of growth caused by the presence of each biocide and each of the 64 combinations. A 90% inhibition of growth (I90) value is used as a threshold for calculating synergy index (SI) values with the following equation: Synergy Index=MDBMAL/CDBMAL+MB/CB
(§6) where • CDBMAL: Concentration of DBMAL required to inhibit at least 90% of bacterial growth when used alone • CB: Concentration of biocide (B) required to inhibit at least 90% of bacterial growth when used alone. • MDBMAL: Concentration of DBMAL required to inhibit at least 90% of bacterial growth when used in combination with biocide (B). • MB: Concentration of biocide (B) required to inhibit at least 90% of bacterial growth when used in combination with DBMAL The SI values are interpreted as follows: • SI<1: Synergistic combination • SI=1: Additive combination • SI>1: Antagonistic combination
(§7) In the Examples below, the amounts of biocides in the solution are measured in mg per liter of solution (mg/l). Since solution densities are approximately 1.00, the mg/1 measurement corresponds to weight and can be expressed as parts per million (ppm). Both units may therefore be used interchangeably in the Examples.

[2] = as above; assay type: cell-based; conditions: Example 3
Source text: as §1, §2, §3, §4, §5, §6, §7

## [Ag] [Ag, silver]
[1]; Example 1 Experiment 1
  I90 (concentration required to inhibit at least 90% of bacterial growth when used alone): 0.063 mg/L
[1]; Example 1 subsequent experiment (Experiment 2)
  I90 (concentration required to inhibit at least 90% of bacterial growth when used alone): 0.125 ppm

## NC(=O)C(Br)(Br)C(N)=O [DBMAL, 2,2-dibromomalonamide]
[2]; DBMAL Alone 0.20 mg/l
  inhibition at 0.2 µg/mL: 2%
[2]; DBMAL Alone 0.39 mg/l
  inhibition at 0.39 µg/mL: 0%
[2]; DBMAL Alone 0.78 mg/l
  inhibition at 0.78 µg/mL: 4%
[2]; DBMAL Alone 1.56 mg/l
  inhibition at 1.56 µg/mL: 9%
[2]; DBMAL Alone 3.13 mg/l
  inhibition at 3.13 µg/mL: 21%
[2]; DBMAL Alone 6.25 mg/l
  inhibition at 6.25 µg/mL: 29%
[2]; DBMAL Alone 12.50 mg/l
  inhibition at 12.5 µg/mL: 100%
[2]; DBMAL Alone 25.00 mg/l
  inhibition at 25 µg/mL: 100%
[1]; Example 1 Experiment 1
  I90 (concentration required to inhibit at least 90% of bacterial growth when used alone): 12.5 mg/L
[1]
  I90 (concentration required for at least 90% inhibition of growth): 12.5 mg/L

## [Zn] [Zn, zinc, reference compound]
[1]; Zn Alone 19.5 mg/l
  % Inhibition of Growth: 19%
[1]; Zn Alone 39.1 mg/l
  % Inhibition of Growth: 12%
[1]; Zn Alone 78.1 mg/l
  % Inhibition of Growth: 18%
[1]; Zn Alone 156.3 mg/l
  % Inhibition of Growth: 23%
[1]; Zn Alone 312.5 mg/l
  % Inhibition of Growth: 33%
[1]; Zn Alone 625.0 mg/l
  % Inhibition of Growth: 74%
[1]; Zn Alone 1250.0 mg/l
  % Inhibition of Growth: 91%
[1]; Zn Alone 2500.0 mg/l
  % Inhibition of Growth: 92%

## [Cu] [Cu, copper]
[1]
  I90 (concentration required for at least 90% inhibition of growth): 0.78 mg/L
